According to PubChem BioAssay (NCI):
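Exposure lasted 48 hours, with cells grown in 96-well plates and compounds tested at five concentrations. Abbreviation: GI50, concentration required for 50% inhibition of growth. At the TGI there is no net growth.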

What was measured:
Test in all cases: DTP human tumour cell line panel, 48 h
SK-MEL-28 melanoma = system: SK-MEL-28 melanoma
CAKI-1 renal = system: CAKI-1 renal
K-562 leukemia = system: K-562 leukemia
OVCAR-4 ovarian = system: OVCAR-4 ovarian
SNB-75 CNS = system: SNB-75 CNS
OVCAR-8 ovarian = system: OVCAR-8 ovarian
UACC-62 melanoma = system: UACC-62 melanoma
MCF7 breast = system: MCF7 breast
COLO 205 colon = system: COLO 205 colon
U251 CNS = system: U251 CNS
A549 NSCLC = system: A549 NSCLC
BT-549 breast = system: BT-549 breast
DU-145 prostate = system: DU-145 prostate
CCRF-CEM leukemia = system: CCRF-CEM leukemia
HOP-62 NSCLC = system: HOP-62 NSCLC
NCI-H460 lung = system: NCI-H460 lung
RXF 393 renal = system: RXF 393 renal
NCI-H226 lung = system: NCI-H226 lung
HCT-116 colon = system: HCT-116 colon
M14 melanoma = system: M14 melanoma
OVCAR-3 ovarian = system: OVCAR-3 ovarian
MOLT-4 leukemia = system: MOLT-4 leukemia
NCI/ADR-RES ovarian = system: NCI/ADR-RES ovarian
MDA-MB-435 = system: MDA-MB-435
RPMI-8226 leukemia = system: RPMI-8226 leukemia
HOP-92 NSCLC = system: HOP-92 NSCLC
LOX IMVI melanoma = system: LOX IMVI melanoma
UACC-257 melanoma = system: UACC-257 melanoma
UO-31 renal = system: UO-31 renal
NCI-H23 lung = system: NCI-H23 lung
NCI-H522 lung = system: NCI-H522 lung
SF-295 CNS = system: SF-295 CNS
IGROV1 ovarian = system: IGROV1 ovarian
EKVX NSCLC = system: EKVX NSCLC
786-0 renal = system: 786-0 renal
MDA-MB-231 breast = system: MDA-MB-231 breast
SK-OV-3 ovarian = system: SK-OV-3 ovarian
SF-539 CNS = system: SF-539 CNS
T-47D breast = system: T-47D breast
SF-268 CNS = system: SF-268 CNS
ACHN renal = system: ACHN renal
HS 578T breast = system: HS 578T breast
KM12 colon = system: KM12 colon
HL-60(TB) leukemia = system: HL-60(TB) leukemia
SR leukemia = system: SR leukemia
SK-MEL-5 melanoma = system: SK-MEL-5 melanoma
A498 renal = system: A498 renal
TK-10 renal = system: TK-10 renal
PC-3 prostate = system: PC-3 prostate
HT29 colon = system: HT29 colon
SK-MEL-2 melanoma = system: SK-MEL-2 melanoma
SN12C renal = system: SN12C renal
SW-620 colon = system: SW-620 colon
HCT-15 colon = system: HCT-15 colon
OVCAR-5 ovarian = system: OVCAR-5 ovarian
MALME-3M melanoma = system: MALME-3M melanoma
SNB-19 CNS = system: SNB-19 CNS
HCC-2998 colon = system: HCC-2998 colon

**Q.** Which results are given for Cc1ccc(C(=Nc2ccccc2)N=P(c2ccccc2)(c2ccccc2)c2ccccc2)cc1?
**A.** GI50 (SK-MEL-28 melanoma): 1630 nM; TGI (SK-MEL-28 melanoma): 10000 nM; GI50 (CAKI-1 renal): 1820 nM; GI50 (K-562 leukemia): 4220 nM; TGI (K-562 leukemia): > 100000 nM; GI50 (OVCAR-4 ovarian): 1530 nM; TGI (OVCAR-4 ovarian): > 31000 nM; GI50 (SNB-75 CNS): 2440 nM; TGI (SNB-75 CNS): 14800 nM; GI50 (OVCAR-8 ovarian): 3340 nM; TGI (OVCAR-8 ovarian): > 100000 nM; GI50 (UACC-62 melanoma): 1190 nM; TGI (UACC-62 melanoma): 5070 nM; GI50 (MCF7 breast): 1430 nM; TGI (MCF7 breast): 4850 nM; GI50 (COLO 205 colon): 833 nM; TGI (COLO 205 colon): 2320 nM; GI50 (U251 CNS): 1150 nM; GI50 (A549 NSCLC): 1430 nM; TGI (A549 NSCLC): 15000 nM; GI50 (BT-549 breast): 1540 nM; TGI (BT-549 breast): 3960 nM; GI50 (DU-145 prostate): 2090 nM; GI50 (CCRF-CEM leukemia): 2510 nM; TGI (CCRF-CEM leukemia): 6500 nM; GI50 (HOP-62 NSCLC): 2140 nM; GI50 (NCI-H460 lung): 1220 nM; TGI (NCI-H460 lung): 4230 nM; GI50 (RXF 393 renal): 695 nM; TGI (RXF 393 renal): 2520 nM; GI50 (NCI-H226 lung): 1570 nM; TGI (NCI-H226 lung): 9380 nM; GI50 (HCT-116 colon): 986 nM; TGI (HCT-116 colon): 3920 nM; GI50 (M14 melanoma): 1810 nM; TGI (M14 melanoma): 8770 nM; GI50 (OVCAR-3 ovarian): 1120 nM; GI50 (MOLT-4 leukemia): 328 nM; TGI (MOLT-4 leukemia): 1290 nM; GI50 (NCI/ADR-RES ovarian): 3610 nM; GI50 (MDA-MB-435): 955 nM; TGI (MDA-MB-435): 3230 nM; GI50 (RPMI-8226 leukemia): 1180 nM; TGI (RPMI-8226 leukemia): 2860 nM; TGI (HOP-92 NSCLC): 1400 nM; GI50 (LOX IMVI melanoma): 949 nM; TGI (LOX IMVI melanoma): 4280 nM; GI50 (UACC-257 melanoma): 1320 nM; TGI (UACC-257 melanoma): 3740 nM; GI50 (UO-31 renal): 1320 nM; TGI (UO-31 renal): 3800 nM; GI50 (NCI-H23 lung): 3110 nM; TGI (NCI-H23 lung): 12500 nM; GI50 (NCI-H522 lung): 1440 nM; TGI (NCI-H522 lung): 9730 nM; GI50 (SF-295 CNS): 875 nM; TGI (SF-295 CNS): 7120 nM; GI50 (IGROV1 ovarian): 621 nM; TGI (IGROV1 ovarian): 4960 nM; GI50 (EKVX NSCLC): 1440 nM; GI50 (786-0 renal): 1710 nM; TGI (786-0 renal): 4290 nM; GI50 (MDA-MB-231 breast): 2210 nM; TGI (MDA-MB-231 breast): 7750 nM; GI50 (SK-OV-3 ovarian): 1980 nM; TGI (SK-OV-3 ovarian): 5220 nM; GI50 (SF-539 CNS): 2180 nM; TGI (SF-539 CNS): 8680 nM; GI50 (T-47D breast): 1240 nM; GI50 (SF-268 CNS): 1790 nM; GI50 (ACHN renal): 1340 nM; GI50 (HS 578T breast): 1480 nM; TGI (HS 578T breast): 7840 nM; GI50 (KM12 colon): 1070 nM; TGI (KM12 colon): 4710 nM; GI50 (HL-60(TB) leukemia): 235 nM; TGI (HL-60(TB) leukemia): 593 nM; GI50 (SR leukemia): 1670 nM; TGI (SR leukemia): 14900 nM; GI50 (SK-MEL-5 melanoma): 739 nM; TGI (SK-MEL-5 melanoma): 1930 nM; GI50 (A498 renal): 1720 nM; TGI (A498 renal): 5320 nM; GI50 (TK-10 renal): 1180 nM; TGI (TK-10 renal): 4140 nM; GI50 (PC-3 prostate): 1740 nM; TGI (PC-3 prostate): 4040 nM; GI50 (HT29 colon): 1150 nM; TGI (HT29 colon): > 36800 nM; GI50 (SK-MEL-2 melanoma): 1310 nM; TGI (SK-MEL-2 melanoma): 5440 nM; GI50 (SN12C renal): 1410 nM; TGI (SN12C renal): 9000 nM; GI50 (SW-620 colon): 1260 nM; GI50 (HCT-15 colon): 1220 nM; GI50 (OVCAR-5 ovarian): 2980 nM; GI50 (MALME-3M melanoma): 288 nM; TGI (MALME-3M melanoma): 946 nM; GI50 (SNB-19 CNS): 2120 nM; GI50 (HCC-2998 colon): 1220 nM; TGI (HCC-2998 colon): 3720 nM
